Data as given in patent US20140155415A1, “BENZ[…] BENZODIOXINE COMPOUNDS THAT INTERACT WITH G[…] FOR THE TREATMENT OF DIABETES” (priority 2011, published 2014).

Tests used:
[1] = target: T1, GK-GKRP (interaction between glucokinase and glucokinase regulatory protein) (Homo sapiens, UniProt Q14397); test: GK-GKRP Binding Assay (Binding), AlphaScreen; conditions: avi-tagged GKRP, GK-fluorescein, AlphaScreen beads, 1 μM sorbitol-6-phosphate; read-out: GK-GKRP IC50 (Binding)
T1 construct: made in house; host or cells: GKRP: baculovirus system
T1 sequence (Q14397 1-625): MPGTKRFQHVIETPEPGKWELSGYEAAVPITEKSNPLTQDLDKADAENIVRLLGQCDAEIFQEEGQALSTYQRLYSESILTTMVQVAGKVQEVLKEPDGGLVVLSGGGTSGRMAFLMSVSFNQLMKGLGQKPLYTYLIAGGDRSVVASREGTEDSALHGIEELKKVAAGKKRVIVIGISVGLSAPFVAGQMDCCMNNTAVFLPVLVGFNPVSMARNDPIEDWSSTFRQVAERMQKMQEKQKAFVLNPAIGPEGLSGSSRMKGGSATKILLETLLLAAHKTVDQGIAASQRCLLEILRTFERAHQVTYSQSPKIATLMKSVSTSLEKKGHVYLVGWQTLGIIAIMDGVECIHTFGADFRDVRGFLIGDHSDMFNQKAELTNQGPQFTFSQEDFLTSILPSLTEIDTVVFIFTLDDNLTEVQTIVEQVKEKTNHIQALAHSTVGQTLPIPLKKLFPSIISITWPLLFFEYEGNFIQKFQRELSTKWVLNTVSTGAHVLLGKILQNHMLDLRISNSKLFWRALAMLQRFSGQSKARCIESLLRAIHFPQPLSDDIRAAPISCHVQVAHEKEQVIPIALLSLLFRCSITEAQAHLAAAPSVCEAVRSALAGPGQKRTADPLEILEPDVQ
How it was run: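 Biotinylated, C-terminally avi-tagged human GKRP was preincubated 20 min at room temperature with compound, then fluorescein-labelled human hepatic GK was added (6 nM in the added buffer). The mix was incubated 2 h at room temperature in the dark before AlphaScreen reading. Buffer was 20 mM Tris pH 7.5, 0.05% BSA, 1 mM DTT, 1 μM sorbitol-6-phosphate.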

[2] = target: T2, GK-GKRP (glucokinase / glucokinase regulatory protein) (Homo sapiens, UniProt Q14397); test: GKRP LC MS/MS Biochemical Assay (LCMS/MS); conditions: formation of 13C-glucose-6-phosphate from 13C-glucose by LC MS/MS, human His-hepatic GK, fructose-6-phosphate
T2 sequence (Q14397 1-625): T1 sequence (Q14397 1-625)
How it was run: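 Human His-tagged hepatic GK (30 nM working stock, 5×) with GKRP in 50 mM Tris pH 7.5, 4 mM MgCl2, 6% DMSO; compound preincubated 30 min, then GK added for 30 min at room temperature. Acetonitrile-stopped; 13C-glucose-6-phosphate formed from 13C-glucose quantified by LC MS/MS.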

IC50 [1] [nM] | EC50 [2] [nM] | Compound
6 | 22 | C[C@](O)(c1ccnc(-c2cccc3cc([C@H](NS(=O)(=O)c4ccc5c(c4)OCCCO5)c4ccccc4)sc23)c1)C(F)(F)F (single isomer, unassigned) [Example 70 Peak #2]
330 | 170 | C[C@@](O)(c1ccnc(-c2cccc3cc([C@@H](NS(=O)(=O)c4ccc5c(c4)OCCCO5)c4ccccc4)sc23)c1)C(F)(F)F (single isomer, unassigned) [Example 70 Peak #3]
110 | 74 | C[C@](O)(c1ccnc(-c2cccc3cc([C@@H](NS(=O)(=O)c4ccc5c(c4)OCCCO5)c4ccccc4)sc23)c1)C(F)(F)F (single isomer, unassigned) [Example 70 Peak #4]
350 | 120 | O=S(=O)(N[C@H](c1ccccc1)c1cc2cccc(-c3ccccn3)c2s1)c1ccc2c(c1)OCCCO2 (single isomer, unassigned) [Example 71 Peak #2]

Second part, the compound before the results:

Compound | IC50 [1] [nM] | EC50 [2] [nM]
O=S(=O)(N[C@H](c1ccccc1)c1cc2ccccc2s1)c1ccc2c(c1)OCCCO2 (single isomer, unassigned) [Example 57 Peak #2] | 1900 | 87
CSc1ccccc1[C@H](NS(=O)(=O)c1ccc2c(c1)OCCCO2)c1cc2ccncc2s1 (single isomer, unassigned) [Example 64 Peak #1] | 430 | 180
CSc1ccccc1[C@@H](NS(=O)(=O)c1ccc2c(c1)OCCCO2)c1cc2ccncc2s1 (single isomer, unassigned) [Example 64 Peak #2] | 1 | 10
CSc1ccccc1[C@@H](NS(=O)(=O)c1ccc2c(c1)OCCCO2)c1nc2cccnc2s1 (single isomer, unassigned) [Example 65 Peak #2] | 7 | 15
COc1ccccc1[C@@H](NS(=O)(=O)c1ccc2c(c1)OCCCO2)c1nc2cccnc2s1 (single isomer, unassigned) [Example 67 Peak #2] | 48 | 24
O=S(=O)(N[C@@H](c1nc2cccnc2s1)c1ccccc1Cl)c1ccc2c(c1)OCCCO2 (single isomer, unassigned) [Example 68 Peak #2] | 20 | 29
C[C@@](O)(c1ccnc(-c2cccc3cc([C@H](NS(=O)(=O)c4ccc5c(c4)OCCCO5)c4ccccc4)sc23)c1)C(F)(F)F (single isomer, unassigned) [Example 70 Peak #1] | 7 | 17
